Patent publication US20250064773A1, “TARGETING ERO1 ALPHA WITH AURONE DERIVATIVES” (West Virginia University Board of Governors on behalf of …, priority 2021, published 2025)

Test system: MM1.s
Assay: MTT viability assay, MM1.s
Format: cell-based
Conditions: Homo sapiens, Multiple Myeloma, read-out: IC50 Avg ± s.d. (n = 3), MM1.s
Excerpt: Cell Lines: PC-9 cell line used was obtained from Sigma Aldrich and grown in RPMI 1640 medium with 10% fetal bovine serum and 1% penicillin/streptomycin. HCC4006, U266, MM1.s, and Beas-2B cell lines were obtained from ATCC and cultured in either RPMI 1640 or DMEM with 10% fetal bovine serum and 1% penicillin/streptomycin. All cell lines were also checked for mycoplasma every six months and subjected to short tandem repeat (STR) analysis for cell line validation. CRISPR Cas9: CRISPR Guide RNA 2 targeting ERO1α and CRISPR Guide RNA 4 were purchased from Genscript in the pLentiCRISPR V2 plasmid containing puromycin/ampicillin selection marker. Lentivirus was made from HEK 293T cells by co-transfection with GuideRNA of interest, pVSVG, and pPAX2 plasmids. […] Plate was then read on the BioTek Cytation 5 at 530/590 nm. […] Plate was then read at 570 nm. Treated wells were all compared to DMSO control wells to calculate percent growth inhibition and the IC50 was calculated using GraphPad (log(inhibitor) vs growth inhibition). […] Images were then quantified using ImageJ. […] Cells were aliquoted at 1 million cells per PCR tube in PBS and heated in Bio-Rad T100 thermal cycler at indicated temperatures (RT, 46° C., 48° C., 50° C., 52° C., 54° C., 56°, 58° C., and 60° C.) for 3 minutes and aggregation temperature was determined by western blot analysis. […]

## CN(C)c1ccc(/C=C2\Oc3cc(O)ccc3C2=O)cc1 [Compound T151742]
  IC50: 7.45 ± 1.12 µM
